Laboratory results taken from patent publication US20060263802A1 (priority 2003, published 2006).

Legend:
Type in all cases: binding
[1] = test system: human monoclonal antibody CRJA
[2] = test system: human monoclonal antibody CRJA; remark: listed apart in the source
[3] = test system: human monoclonal antibody CR57
[4] = test system: human monoclonal antibody CR57; remark: listed apart in the source
[5] = test system: human monoclonal antibody CRJB
[6] = test system: human monoclonal antibody CRJB; remark: listed apart in the source

Which “Binding of CRJA to linear peptide (PEPSCAN-ELISA signal)” value (“Binding of CRJA to linear peptide” for short) [1] does the source give for GNVLIPEMQSSLLQQ here?
Its value is 85.

And the “Binding of CRJA (10 μg/ml) to looped/cyclic peptide (PEPSCAN-ELISA)” value [2]?
The value was 78.

What about the “Binding of CR57 to linear peptide (PEPSCAN-ELISA signal)” value (“Binding of CR57 to linear peptide” below) [3] of the same sequence?
The value was 96.

What about the “Binding of CR57 (10 μg/ml) to looped/cyclic peptide (PEPSCAN-ELISA)” value [4] of the same sequence?
Its value is 99.

And the “Binding of CRJB to linear peptide (PEPSCAN-ELISA signal)” value (shortened to “Binding of CRJB to linear peptide”) [5]?
The value was 120.

What about the “Binding of CRJB (10 μg/ml) to looped/cyclic peptide (PEPSCAN-ELISA)” value [6] of the same sequence?
The value was 103.

How did the “Binding of CRJA to linear peptide” value [1] turn out when IPEMQSSLLQQHMEL was run?
Its value is 60.

And the “Binding of CRJA (10 μg/ml) to looped/cyclic peptide (PEPSCAN-ELISA)” value [2]?
Its value is 54.

What about the “Binding of CR57 to linear peptide” value [3] of the same sequence?
The value was 89.

And the “Binding of CR57 (10 μg/ml) to looped/cyclic peptide (PEPSCAN-ELISA)” value [4]?
Its value is 66.

What about the “Binding of CRJB to linear peptide” value [5] of the same sequence?
The value was 128.

And the “Binding of CRJB (10 μg/ml) to looped/cyclic peptide (PEPSCAN-ELISA)” value [6]?
The value was 83.

What does the source list for HLSCPNNLVVEDEGC?
Binding of CRJA to linear peptide (PEPSCAN-ELISA signal) [1]: 76; Binding of CRJA (10 μg/ml) to looped/cyclic peptide (PEPSCAN-ELISA signal) [2]: 92; Binding of CR57 to linear peptide (PEPSCAN-ELISA signal) [3]: 65; Binding of CR57 (10 μg/ml) to looped/cyclic peptide (PEPSCAN-ELISA signal) [4]: 76; Binding of CRJB to linear peptide (PEPSCAN-ELISA signal) [5]: 119; Binding of CRJB (10 μg/ml) to looped/cyclic peptide (PEPSCAN-ELISA signal) [6]: 64

How did the “Binding of CRJA to linear peptide” value [1] turn out when ETCGFVDERGLYKSL was run?
The value was 85.

What about the “Binding of CRJA (10 μg/ml) to looped/cyclic peptide (PEPSCAN-ELISA)” value [2] of the same sequence?
Its value is 75.

What about the “Binding of CR57 to linear peptide” value [3] of the same sequence?
The value was 64.

What about the “Binding of CR57 (10 μg/ml) to looped/cyclic peptide (PEPSCAN-ELISA)” value [4] of the same sequence?
Its value is 90.

And the “Binding of CRJB to linear peptide” value [5]?
Its value is 120.

And the “Binding of CRJB (10 μg/ml) to looped/cyclic peptide (PEPSCAN-ELISA)” value [6]?
Its value is 78.

How did the “Binding of CRJA to linear peptide” value [1] turn out when FRPTPDACRAAYNWK was run?
The value was 104.

And the “Binding of CRJA (10 μg/ml) to looped/cyclic peptide (PEPSCAN-ELISA signal)” value [2]?
Its value is 125.

And the “Binding of CR57 to linear peptide” value [3]?
The value was 43.

What about the “Binding of CR57 (10 μg/ml) to looped/cyclic peptide (PEPSCAN-ELISA signal)” value [4] of the same sequence?
Its value is 90.

And the “Binding of CRJB to linear peptide” value [5]?
Its value is 112.

What about the “Binding of CRJB (10 μg/ml) to looped/cyclic peptide (PEPSCAN-ELISA signal)” value [6] of the same sequence?
The value was 88.

Which “Binding of CRJA to linear peptide” value [1] does the source give for AIKMNGFTCTGVVTE here?
Its value is 93.

What about the “Binding of CRJA (10 μg/ml) to looped/cyclic peptide (PEPSCAN-ELISA signal)” value [2] of the same sequence?
Its value is 71.

And the “Binding of CR57 to linear peptide” value [3]?
The value was 47.

And the “Binding of CR57 (10 μg/ml) to looped/cyclic peptide (PEPSCAN-ELISA signal)” value [4]?
The value was 69.

And the “Binding of CRJB to linear peptide” value [5]?
The value was 103.

What about the “Binding of CRJB (10 μg/ml) to looped/cyclic peptide (PEPSCAN-ELISA signal)” value [6] of the same sequence?
Its value is 79.

For GDPRYEESLHNPYPD, which “Binding of CRJA to linear peptide” value [1] is on record?
Its value is 96.

What about the “Binding of CRJA (10 μg/ml) to looped/cyclic peptide (PEPSCAN-ELISA signal)” value [2] of the same sequence?
The value was 90.

And the “Binding of CR57 to linear peptide” value [3]?
Its value is 36.

And the “Binding of CR57 (10 μg/ml) to looped/cyclic peptide (PEPSCAN-ELISA signal)” value [4]?
Its value is 64.

What about the “Binding of CRJB to linear peptide” value [5] of the same sequence?
Its value is 98.

And the “Binding of CRJB (10 μg/ml) to looped/cyclic peptide (PEPSCAN-ELISA signal)” value [6]?
Its value is 82.

Which “Binding of CRJA to linear peptide” value [1] does the source give for TGVVTEAENYTNFVG here?
The value was 86.

And the “Binding of CRJA (10 μg/ml) to looped/cyclic peptide (PEPSCAN-ELISA signal)” value [2]?
The value was 96.

And the “Binding of CR57 to linear peptide” value [3]?
The value was 85.

What about the “Binding of CR57 (10 μg/ml) to looped/cyclic peptide (PEPSCAN-ELISA signal)” value [4] of the same sequence?
Its value is 92.

What about the “Binding of CRJB to linear peptide” value [5] of the same sequence?
Its value is 110.

What about the “Binding of CRJB (10 μg/ml) to looped/cyclic peptide (PEPSCAN-ELISA signal)” value [6] of the same sequence?
Its value is 69.

How did the “Binding of CRJA to linear peptide” value [1] turn out when PSVADLDPYDRSLHS was run?
Its value is 72.

What about the “Binding of CRJA (10 μg/ml) to looped/cyclic peptide (PEPSCAN-ELISA signal)” value [2] of the same sequence?
The value was 62.

What about the “Binding of CR57 to linear peptide” value [3] of the same sequence?
Its value is 44.

And the “Binding of CR57 (10 μg/ml) to looped/cyclic peptide (PEPSCAN-ELISA signal)” value [4]?
Its value is 57.

And the “Binding of CRJB to linear peptide” value [5]?
The value was 114.

And the “Binding of CRJB (10 μg/ml) to looped/cyclic peptide (PEPSCAN-ELISA signal)” value [6]?
Its value is 33.

How did the “Binding of CRJA to linear peptide” value [1] turn out when LESIMTTKSVSFRRL was run?
The value was 94.

What about the “Binding of CRJA (10 μg/ml) to looped/cyclic peptide (PEPSCAN-ELISA)” value [2] of the same sequence?
The value was 91.

What about the “Binding of CR57 to linear peptide” value [3] of the same sequence?
Its value is 48.

And the “Binding of CR57 (10 μg/ml) to looped/cyclic peptide (PEPSCAN-ELISA)” value [4]?
Its value is 94.

And the “Binding of CRJB to linear peptide” value [5]?
The value was 114.

What about the “Binding of CRJB (10 μg/ml) to looped/cyclic peptide (PEPSCAN-ELISA)” value [6] of the same sequence?
Its value is 78.

With EADAHYKSVRTWNEI as the sequence, how does the “Binding of CRJA to linear peptide” value [1] read?
The value was 79.

And the “Binding of CRJA (10 μg/ml) to looped/cyclic peptide (PEPSCAN-ELISA)” value [2]?
The value was 63.

What about the “Binding of CR57 to linear peptide” value [3] of the same sequence?
Its value is 58.

And the “Binding of CR57 (10 μg/ml) to looped/cyclic peptide (PEPSCAN-ELISA)” value [4]?
Its value is 78.

What about the “Binding of CRJB to linear peptide” value [5] of the same sequence?
The value was 97.

And the “Binding of CRJB (10 μg/ml) to looped/cyclic peptide (PEPSCAN-ELISA)” value [6]?
Its value is 76.

Which results are given for LGLRLMDGTWVAMQT?
Binding of CRJA to linear peptide (PEPSCAN-ELISA signal) [1]: 113; Binding of CRJA (10 μg/ml) to looped/cyclic peptide (PEPSCAN-ELISA) [2]: 97; Binding of CR57 to linear peptide (PEPSCAN-ELISA signal) [3]: 102; Binding of CR57 (10 μg/ml) to looped/cyclic peptide (PEPSCAN-ELISA) [4]: 92; Binding of CRJB to linear peptide (PEPSCAN-ELISA signal) [5]: 115; Binding of CRJB (10 μg/ml) to looped/cyclic peptide (PEPSCAN-ELISA) [6]: 108
